Laboratory results from US10111431B2, “Application of biofilm formation inhibiting compounds enhances control of citrus canker” (priority 2013, dated 2018).

Tests used:
[1] = tested on: Xac306 biofilm formation; assay: Static biofilm formation assay in 96-well polystyrene plates with crystal violet staining; assay type: cell-based, Xanthomonas citri subsp. citri; details: for dose dependence of Xac306 biofilm decrease: 0 to 20 mM for D-leucine and D-serine, 0 to 150 μg/mL for IAN; for decrease in biofilm mass: 10 mM for D-leucine and 100 μg/mL for IAN (below MIC); for effect on planktonic cell density: sub-MIC: 10 mM D-leucine, 100 μg/mL IAN, data not shown
Experimental: A static biofilm formation assay in 96-well polystyrene plates coupled with CV staining was performed as previously reported with modifications (Li and Wang, 2011). Briefly, a 96-well polystyrene plate (Nunclon surface, Nuncbrand, Denmark) was prepared with 170 μL NB plus 1.0% glucose per well. Aliquots of 20 μL each of the different concentrations of the tested compound were pipetted into eight wells containing 170 μL of NB plus 1.0% glucose. To each of these wells was added 10 μL of the standardized overnight Xac 306 culture (OD600=1.0). Control wells contained NB plus 1.0% glucose and SDW or 0.1% DMSO as a sterility control, or standardized overnight Xac 306 culture as a growth control. The plate was covered by a MicroWell lid (Nunclon), sealed with parafilm to prevent evaporation and incubated at 28° C. for 48 h without shaking. After incubation, the planktonic growth was measured at OD600. To quantify the amount of biofilms formed on the surfaces of the wells, the culture was removed from the wells. After drying, the wells were washed twice with 200 μl of SDW for 5 min, allowed to dry then 200 μl of 0.1% CV added. After 30 minutes, the CV was removed. The wells were washed with excess SDW to remove unbound CV and air dried in an inverted position for 2 h. Afterward, 200 μl of 95% ethanol was added to the wells and incubated for 30 min at room temperature to elute bound CV. The eluted CV was 2-fold diluted in double distilled water and the absorbance at 590 nm was measured. Each data point was averaged from eight replicate wells.

[2] = tested on: Xac306 biofilm formation; assay: Biofilm formation on polystyrene surface and in glass tubes at sub-MIC; assay type: cell-based, Xanthomonas citri subsp. citri; details: Xanthomonas citri, read-out: level of biofilm formation, % of control
Experimental: A static biofilm formation assay in 96-well polystyrene plates coupled with CV staining was performed as previously reported with modifications (Li and Wang, 2011). Briefly, a 96-well polystyrene plate (Nunclon surface, Nuncbrand, Denmark) was prepared with 170 μL NB plus 1.0% glucose per well. Aliquots of 20 μL each of the different concentrations of the tested compound were pipetted into eight wells containing 170 μL of NB plus 1.0% glucose. To each of these wells was added 10 μL of the standardized overnight Xac 306 culture (OD600=1.0). Control wells contained NB plus 1.0% glucose and SDW or 0.1% DMSO as a sterility control, or standardized overnight Xac 306 culture as a growth control. […] After incubation, the planktonic growth was measured at OD600. To quantify the amount of biofilms formed on the surfaces of the wells, the culture was removed from the wells. […] The eluted CV was 2-fold diluted in double distilled water and the absorbance at 590 nm was measured. […]
To gain further evidence of the effect of selected compounds on biofilm formation, biofilm formation in glass tubes and on leaf surfaces was examined as described previously (Li and Wang, 2012). […] The stain remaining in cells on glass tubes was dissolved in 95% ethanol and quantified by measuring the optical density at 590 nm. […]

[3] = tested on: Xac strain 306 biofilm formation; assay: Biofilm formation on citrus abaxial leaf surfaces; assay type: cell-based, Xanthomonas citri subsp. citri; details: 10 mM D-leucine, 100 μg/mL IAN; 28° C., 24 h, crystal violet
Experimental: To gain further evidence of the effect of selected compounds on biofilm formation, biofilm formation in glass tubes and on leaf surfaces was examined as described previously (Li and Wang, 2012). Briefly, the standardized overnight culture of Xac 306 (OD600=1.0) were diluted 1:10 in fresh NB containing 1.0% glucose and the selected compound. For biofilm formation assay in glass tubes (Fischer Scientific, Pittsburgh, Pa.), 1 ml of the diluted bacterial suspension was transferred into each sterilized borosilicate glass tube and incubated at 28° C. without shaking for 48 h. The planktonic growth was then discarded and the tubes were gently washed three times with SDW. The biofilm formed on the tubes was visualized by staining with 0.1% CV. The stain remaining in cells on glass tubes was dissolved in 95% ethanol and quantified by measuring the optical density at 590 nm. For biofilm formation assay on leaf surfaces, 20 μl of the diluted bacterial suspension was dropped onto the abaxial surface of citrus leaves. The leaves were kept in a humidified chamber at 28° C. for 24 h without shaking. The biofilm formed on the leaf surfaces was visualized by staining with 0.1% CV. The biofilm assays were repeated three times with four replicates each time.

[4] = tested on: Xac 306 biofilm cells; assay: Resistance of Xac biofilm cells to copper, cell viability assay in glass tubes; assay type: cell-based, Xanthomonas citri subsp. citri; details: for susceptibility of biofilms to CuSO4 relative to untreated control: 10 mM D-leucine, 100 μg/mL IAN; for cell viability of Xac biofilms exposed to CuSO4: CuSO4 1.0 mM plus biofilm inhibitor; for viable cells in biofilms: CuSO4 (1.0 mM) plus D-leucine 10.0 mM and/or IAN 100 μg/ml, 24 h
Experimental: The level of copper resistance of biofilms was evaluated using a cell viability assays. Briefly, Xac biofilms were prepared using NB with stationary incubation in glass tubes as described above. After 48 h-incubation, the cultures were removed and bacterial cells attached to the tubes were gently washed three times with SDW. One milliliter of fresh NB with CuSO4 (1.0 mM), D-leucine (10 mM) or IAN (100 μg/mL), or a combination of these compounds was added to each tube. NB alone was used as control. Tubes were kept at room temperature for 24 h and shaken vigorously for 5 min. The suspensions were diluted in 10-fold series, and 10 μL of each dilution spotted in triplicate on NA plate. Plates were incubated at 28° C. for 48 to 72 h prior to assessing bacterial growth. Colonies that grew near the dilution end-point were counted and bacterial populations in the initial suspensions prior to dilution were calculated. Each treatment compromises four replicates and the experiment repeated three times.

[5] = tested on: Xac 306 on grapefruit leaves; assay: Plant test in greenhouse, spray inoculation of grapefruit leaves; assay type: in vivo, Xanthomonas citri subsp. citri; details: for level of canker lesions on sprayed leaves / canker symptom development on grapefruit leaves (lesion numbers): D-leucine 10 mM, IAN 100 μg/mL; for level of canker lesions on sprayed leaves: CuSO4 100 μg/mL; for canker symptom development on grapefruit leaves: applied after (6 h) the pathogen inoculation; for canker symptom development on grapefruit leaves (lesion numbers): applied along with or prior to (6 h) pathogen inoculation; for log reduction in the number of CFU compared to untreated control: grapefruit leaves, 7 to 28 days after inoculation
Experimental: The effect of selected biofilm inhibitors on Xac infection/virulence-was investigated using 20-week-old potted grapefruit (Citrus paradise cv. Duncan grapefruit) plants in a quarantine greenhouse at the Citrus Research and Education Center, Lake Alfred, Fla. Copper (CuSO4, 100 μg/mL), D-leucine (10 mM), IAN (100 μg/mL) and a combination of these compounds were individually prepared in 100 ml of SDW. Bacterial inoculum was prepared by growing Xac 306 on NA plates at 28° C. for 48 h, suspending in SDW, adjusting concentration to approximately OD600=0.3 (5×10^8 CFU/mL). The inoculation was performed by a spray method as described previously (Li and Wang, 2012) with modifications. Briefly, the abaxial surfaces of fully expanded, immature leaves of each plant were sprayed with the following treatments: SDW, Xac 306, and Xac 306 combined with CuSO4 (100 μg/mL), D-leucine (10 mM), IAN (100 μg/mL), or a combination of these compounds. Silwett-L77 (silicone-polyether copolymer, Fisher) was added to each treatment at a 0.03% (V/V) final concentration. After inoculation, the plants were covered with plastic bags for 24 h to maintain a high (>90%) relative humidity and then kept in a greenhouse (approximately 60% relative humidity) for symptom development. All inoculations included a minimum of three immature leaves at a similar developmental stage from each plant, and each treatment comprised four plants. The experiments were repeated three times independently. SDW was applied as a negative control, and Xac306 mixed with SDW as positive control. To determine whether the timing of application of biofilm inhibitors in relation to Xac306 affected canker symptom suppression, the biofilm inhibitors were inoculated on leaves 6 h prior to or after inoculation with Xac306.
For bacterial population assays, the leaves of grapefruit plants were inoculated as described above. Two leaf discs randomly selected from each of three inoculated leaves were cut with a cork borer (0.8 cm in diameter) and then ground in 1 mL of SDW. The suspensions were serially diluted and plated on NA plates containing rifamycin. After incubation at 28° C. for 48 h, bacterial colonies were counted and the number of CFU per square centimeter of leaf tissue was calculated. The assays were repeated three times independently.

| SMILES | dose dependence of Xac306 biofilm decrease [1] | decrease in biofilm mass [1] | effect on planktonic cell density [1] | activity at 10000 µM [2] | biofilm formation on citrus leaf surfaces [3] | susceptibility of biofilms to CuSO4 relative to untreated control [4] | cell viability of Xac biofilms exposed to CuSO4 [4] | viable cells in biofilms [4] | level of canker lesions on sprayed leaves [5] | canker symptom development on grapefruit leaves [5] | canker symptom development on grapefruit leaves (lesion numbers) [5] | log reduction in the number of CFU compared to untreated control [5] | activity at 100 µg/mL ([2]; polystyrene surface and glass tubes, 10 mM D-leucine, 100 μg/mL IAN) |
| --- | --- | --- | --- | --- | --- | --- | --- | --- | --- | --- | --- | --- | --- |
| CC(C)C[C@@H](N)C(=O)O [D-leucine] | decreased Xac306 biofilm in a dose-dependent manner | 58% | does not significantly decrease planktonic cell density | 50% | declined biofilm formation | about 10 times | significantly reduced | 1.1×10^6 CFU/mL | less than that sprayed with the pathogen alone | did not affect the development of canker symptoms | able to reduce canker symptom development | ~1.0 log |  |
| N#CCc1c[nH]c2ccccc12 [IAN, 3-indolylacetonitrile] | decreased Xac306 biofilm in a dose-dependent manner | 65% | does not significantly decrease planktonic cell density |  | declined biofilm formation | about 10 times | significantly reduced | 4.3×10^6 CFU/mL | less than that sprayed with the pathogen alone | did not affect the development of canker symptoms | able to reduce canker symptom development | ~1.0 log | 60% |
